Data taken from patent US9737516B2, “Bicyclic heterocycles as bet protein inhibitors” (Incyte Corporation, priority 2013, dated 2017).
Counter-ions that a name gives are not always drawn.

What was measured:
[1] = target: BRD4-BD1 (Homo sapiens (Human), UniProt O60885); experiment: BRD4 AlphaScreen assay (BRD4-BD1); format: binding; conditions: H4Ac4 peptide, 3.8 nM BRD4-BD1, read-out: BRD4 BD-1 enzyme IC50
Protocol: (§1) BRD4-BD1 and BRD4-BD2 assays were conducted in white 384-well polystyrene plate in a final volume of 20 μL for BD1 and 40 μL for BD2. Inhibitors were first serially diluted in DMSO and added to the plate wells before the addition of other reaction components. The final concentration of DMSO in the assay was 1.25% (BD1) and 0.83% (BD2). The assays were carried out at room temperature for 75 min. in the assay buffer (50 mM HEPES, pH 7.4, 100 mM NaCl, 0.05% CHAPS, 0.01% BSA), containing 50 nM Biotin-labeled tetra-acetylated histone H4 peptide (H4Ac4), 3.8 nM (BRD4-BD1, BPS Bioscience #31040) or 20 nM (BRD4-BD2, BPS Bioscience #31041). The reaction followed by the addition of 20 μL of assay buffer supplemented with Streptavidin donor beads (PerkinElmer 6760002) and GSH Acceptor beads (PerkinElmer-AL109C) at 4 µg/mL under reduced light. After plate sealing, the plate was incubated in the dark at room temperature for 75 min. before reading on a PHERAstar FS plate reader (BMG Labtech). IC50 determination was performed by fitting the curve of percent control activity versus the log of the inhibitor concentration using the GraphPad Prism 5.0 software. IC50 data for the Examples is presented in Table 1 as determined by Assay A1.

[2] = target: BRD4-BD2 (Homo sapiens (Human), UniProt O60885); experiment: BRD4 AlphaScreen assay (BRD4-BD2); format: binding; conditions: H4Ac4 peptide, 20 nM BRD4-BD2, read-out: BRD4 BD-2 enzyme IC50
Protocol: as §1

[3] = system: KMS.12.BM cells; experiment: KMS.12.BM cell viability assay (ATP quantitation, Cell Titer-GLO); format: cell-based; conditions: Homo sapiens, 72 h, 3 days, concentration required for 50% cell death, read-out: KMS cellular IC50
Protocol: KMS.12.BM cell line (human myeloma) was purchased from JCRB (Osaka, Japan) and maintained in RPMI with 10% FBS culture medium. To measure the cytotoxic activity of the compounds through ATP quantitation, the KMS.12.BM cells are plated in the RPMI culture medium at 5000 cells/well/per 100 μL into a 96-well polystyrene clear black tissue culture plate (Greiner-bio-one through VWR, NJ), in the presence or absence of a concentration range of test compounds. After 3 days, […] Cell Titer-GLO Luminescent (Promega, Madison, Wis.) cell culture agent is added to each well for 10 minutes at room temperature to stabilize the luminescent signal. This determines the number of viable cells in culture based on quantitation of the ATP present, which signals the presence of metabolically active cells. Luminescence is measured with the Top Count 384 (Packard Bioscience through Perkin Elmer, Boston, Mass.). Compound inhibition is determined relative to cells cultured with no drug and the IC50 is reported as the compound concentration required for 50% cell death. IC50 data for the Examples is presented in Table 2 as determined by Assay B1.

[4] = system: C-myc in KMS.12.BM cells; experiment: KMS.12.BM C-myc ELISA assay; format: cell-based; conditions: Homo sapiens, 2 hours
Protocol: KMS.12.BM cell line (human myeloma) was purchased from JCRB (Osaka, Japan) and maintained in RPMI with 10% FBS culture medium. To measure the C-myc inhibitory activity of the compounds, the KMS.12.BM cells are plated in the RPMI culture medium at 75000 cells/well/per 200 μL into a 96-well flat bottom polystyrene tissue culture plate (Corning through VWR, N.J.), in the presence or absence of a concentration range of test compounds. After 2 hours, cell are pelleted and lysed with Cell Extraction Buffer (BioSource, Carlsbad, Calif.) in the presence of protease inhibitors (Life Technologies, Grand Island, N.Y. and Sigma, St Louis, Mo.). Clarified lyses are tested in a C-myc commercial ELISA (Life Technologies, Grand Island, N.Y.). Compound inhibition is determined relative to cells cultured with no drug and the IC50 is reported as the compound concentration required for 50% C-myc inhibition. IC50 data for the Examples is presented in Table 3 as determined by Assay C1.

## CC(C)n1cnc2cc(-c3cn(C)c(=O)c4[nH]ccc34)c(OCC3CCC3)cc21 [Example 19, 4-[6-(cyclobutylmethoxy)-1-isopropyl-1H-benzimidazol-5-yl]-6-methyl-1,6-dihydro-7H-pyrrolo[2,3-c]pyridin-7-one]
[1]
  IC50: ≤ 100 nM
[2]
  IC50: ≤ 100 nM
[3]
  IC50: ≤ 1000 nM
[4]
  IC50: ≤ 1000 nM

## Cn1cc(-c2cc3[nH]cnc3cc2Oc2ccc(F)cc2F)c2cn[nH]c2c1=O [Example 9, 4-[6-(2,4-Difluorophenoxy)-1H-benzimidazol-5-yl]-6-methyl-1,6-dihydro-7H-pyrazolo[3,4-c]pyridin-7-one trifluoroacetate]
[1]
  IC50: ≤ 100 nM
[2]
  IC50: ≤ 100 nM
[3]
  IC50: ≤ 1000 nM
[4]
  IC50: ≤ 1000 nM

## Cn1cc(-c2cc3ncn(Cc4ccccc4)c3cc2OCC2CCC2)c2cc[nH]c2c1=O [Example 17, 4-[6-(Cyclobutylmethoxy)-1-benzyl-1H-benzimidazol-5-yl]-6-methyl-1,6-dihydro-7H-pyrrolo[2,3-c]pyridin-7-one]
[1]
  IC50: ≤ 100 nM
[2]
  IC50: ≤ 100 nM
[3]
  IC50: ≤ 1000 nM
[4]
  IC50: ≤ 1000 nM

## Cc1nc2cc(Oc3ccc(F)cc3F)c(-c3cn(C)c(=O)c4[nH]ccc34)cc2[nH]1 [Example 6, 4-[5-(2,4-Difluorophenoxy)-2-methyl-1H-benzimidazol-6-yl]-6-methyl-1,6-dihydro-7H-pyrrolo[2,3-c]pyridin-7-one trifluoroacetate]
[1]
  IC50: ≤ 100 nM
[2]
  IC50: ≤ 100 nM
[3]
  IC50: ≤ 1000 nM
[4]
  IC50: ≤ 1000 nM

## CCn1cnc2cc(-c3cn(C)c(=O)c4[nH]ccc34)c(OCC3CCC3)cc21 [Example 13, 4-[6-(Cyclobutylmethoxy)-1-ethyl-1H-benzimidazol-5-yl]-6-methyl-1,6-dihydro-7H-pyrrolo[2,3-c]pyridin-7-one]
[1]
  IC50: ≤ 100 nM
[2]
  IC50: ≤ 100 nM
[3]
  IC50: ≤ 1000 nM
[4]
  IC50: ≤ 1000 nM

## Cn1cc(-c2cc3[nH]c(CCC(=O)O)nc3cc2OCC2CCC2)c2cc[nH]c2c1=O [Example 22, Ammonium 3-[5-(cyclobutylmethoxy)-6-(6-methyl-7-oxo-6,7-dihydro-1H-pyrrolo[2,3-c]pyridin-4-yl)-1H-benzimidazol-2-yl]propanoate]
[1]
  IC50: ≤ 100 nM
[2]
  IC50: ≤ 100 nM
[3]
  IC50: 1000 to 10000 nM

## Cn1cc(-c2cc3[nH]cnc3cc2Oc2ccc(F)cc2F)c2cc[nH]c2c1=O [Example 5, 4-[5-(2,4-Difluorophenoxy)-1H-benzimidazol-6-yl]-6-methyl-1,6-dihydro-7H-pyrrolo[2,3-c]pyridin-7-one trifluoroacetate]
[1]
  IC50: ≤ 100 nM
[2]
  IC50: ≤ 100 nM
[3]
  IC50: ≤ 1000 nM
[4]
  IC50: ≤ 1000 nM

## Cn1cc(-c2cc3c(cc2OCC2CCC2)ncn3Cc2ccccc2)c2cc[nH]c2c1=O [Example 16, 4-[5-(Cyclobutylmethoxy)-1-benzyl-1H-benzimidazol-6-yl]-6-methyl-1,6-dihydro-7H-pyrrolo[2,3-c]pyridin-7-one]
[1]
  IC50: 100 to 1000 nM
[2]
  IC50: ≤ 100 nM

## Cn1cc(-c2cc3c(cc2OCC2CCC2)ncn3C)c2cc[nH]c2c1=O [Example 14, 4-[5-(Cyclobutylmethoxy)-1-methyl-1H-benzimidazol-6-yl]-6-methyl-1,6-dihydro-7H-pyrrolo[2,3-c]pyridin-7-one]
[1]
  IC50: ≤ 100 nM
[2]
  IC50: ≤ 100 nM
[3]
  IC50: ≤ 1000 nM
[4]
  IC50: ≤ 1000 nM

## Cn1cc(-c2cc3c(cc2Oc2ccc(F)cc2F)n(C)c(=O)n3C)c2cc[nH]c2c1=O [Example 7, 5-(2,4-Difluorophenoxy)-1,3-dimethyl-6-(6-methyl-7-oxo-6,7-dihydro-1H-pyrrolo[2,3-c]pyridin-4-yl)-1,3-dihydro-2H-benzimidazol-2-one]
[1]
  IC50: 100 to 1000 nM
[2]
  IC50: ≤ 100 nM
[3]
  IC50: ≤ 1000 nM

## Cn1cc(-c2cc3[nH]c(=O)n(C)c3cc2Oc2ccc(F)cc2F)c2cc[nH]c2c1=O [Example 2, 6-(2,4-Difluorophenoxy)-1-methyl-5-(6-methyl-7-oxo-6,7-dihydro-1H-pyrrolo[2,3-c]pyridin-4-yl)-1,3-dihydro-2H-benzimidazol-2-one]
[1]
  IC50: ≤ 100 nM
[2]
  IC50: ≤ 100 nM
[3]
  IC50: ≤ 1000 nM
[4]
  IC50: ≤ 1000 nM

## Cn1cc(-c2cc3[nH]nnc3cc2Oc2ccc(F)cc2F)c2cc[nH]c2c1=O [Example 8, 4-(5-(2,4-difluorophenoxy)-1H-benzo[d][1,2,3]triazol-6-yl)-6-methyl-1H-pyrrolo[2,3-c]pyridin-7(6H)-one]
[1]
  IC50: ≤ 100 nM
[2]
  IC50: ≤ 100 nM
[3]
  IC50: ≤ 1000 nM
[4]
  IC50: ≤ 1000 nM

## Cn1cc(-c2cc3[nH]cnc3cc2OCC2CCC2)c2cc[nH]c2c1=O [Example 11, 4-[5-(Cyclobutylmethoxy)-1H-benzimidazol-6-yl]-6-methyl-1,6-dihydro-7H-pyrrolo[2,3-c]pyridin-7-one]
[1]
  IC50: ≤ 100 nM
[2]
  IC50: ≤ 100 nM
[3]
  IC50: ≤ 1000 nM
[4]
  IC50: ≤ 1000 nM

## Cn1cc(-c2cc3[nH]c(N4CCCCC4)nc3cc2OCC2CCC2)c2cc[nH]c2c1=O [Example 20, 4-[5-(Cyclobutylmethoxy)-2-piperidin-1-yl-1H-benzimidazol-6-yl]-6-methyl-1,6-dihydro-7H-pyrrolo[2,3-c]pyridin-7-one]
[1]
  IC50: ≤ 100 nM
[2]
  IC50: ≤ 100 nM
[3]
  IC50: ≤ 1000 nM
[4]
  IC50: ≤ 1000 nM

## Cc1nc2cc(-c3cn(C)c(=O)c4[nH]ccc34)c(Oc3ccc(F)cc3F)cc2n1C [Example 4, 4-[6-(2,4-Difluorophenoxy)-1,2-dimethyl-1H-benzimidazol-5-yl]-6-methyl-1,6-dihydro-7H-pyrrolo[2,3-c]pyridin-7-one]
[1]
  IC50: ≤ 100 nM
[2]
  IC50: ≤ 100 nM
[3]
  IC50: ≤ 1000 nM
[4]
  IC50: ≤ 1000 nM

## Cn1cc(-c2cc3[nH]c(C4CCCC4)nc3cc2OCC2CCC2)c2cc[nH]c2c1=O [Example 21, 4-[5-(Cyclobutylmethoxy)-2-cyclopentyl-1H-benzimidazol-6-yl]-6-methyl-1,6-dihydro-7H-pyrrolo[2,3-c]pyridin-7-one bis(trifluoroacetate)]
[1]
  IC50: ≤ 100 nM
[2]
  IC50: ≤ 100 nM
[3]
  IC50: ≤ 1000 nM

## Cn1cc(-c2cc3ncn(C)c3cc2Oc2ccc(F)cc2F)c2cc[nH]c2c1=O [Example 3, 4-[6-(2,4-Difluorophenoxy)-1-methyl-1H-benzimidazol-5-yl]-6-methyl-1,6-dihydro-7H-pyrrolo[2,3-c]pyridin-7-one]
[1]
  IC50: ≤ 100 nM
[2]
  IC50: ≤ 100 nM
[3]
  IC50: ≤ 1000 nM
[4]
  IC50: ≤ 1000 nM

## CC(C)n1cnc2cc(OCC3CCC3)c(-c3cn(C)c(=O)c4[nH]ccc34)cc21 [Example 18, 4-[5-(Cyclobutylmethoxy)-1-isopropyl-1H-benzimidazol-6-yl]-6-methyl-1,6-dihydro-7H-pyrrolo[2,3-c]pyridin-7-one]
[1]
  IC50: ≤ 100 nM
[2]
  IC50: ≤ 100 nM
[3]
  IC50: ≤ 1000 nM
[4]
  IC50: ≤ 1000 nM

## Cn1cc(-c2cc3ncn(C)c3cc2OCC2CCC2)c2cc[nH]c2c1=O [Example 15, 4-[6-(Cyclobutylmethoxy)-1-methyl-1H-benzimidazol-5-yl]-6-methyl-1,6-dihydro-7H-pyrrolo[2,3-c]pyridin-7-one]
[1]
  IC50: ≤ 100 nM
[2]
  IC50: ≤ 100 nM
[3]
  IC50: ≤ 1000 nM
[4]
  IC50: ≤ 1000 nM

## CCn1cnc2cc(OCC3CCC3)c(-c3cn(C)c(=O)c4[nH]ccc34)cc21 [Example 12, 4-[5-(Cyclobutylmethoxy)-1-ethyl-1H-benzimidazol-6-yl]-6-methyl-1,6-dihydro-7H-pyrrolo[2,3-c]pyridin-7-one]
[1]
  IC50: ≤ 100 nM
[2]
  IC50: ≤ 100 nM
[3]
  IC50: ≤ 1000 nM
